Results from patent publication US7314959B2, “Amino thiol compounds and compositions for use in conjunction with cancer therapy” (Wisconsin Alumni Research Foundation, priority 2003, dated 2008).
Read-outs that look alike come from different tables or passages of the source.

Columns and labels:
[1] = tested on: p21 protein in 23SK human skin cells; experiment: p21 induction by western analysis; assay type: cell-based; conditions: 23SK cells, 30 hr exposure
Protocol: FIGS. 3A and 3B illustrate the level of induced p21 protein seen in diploid human fibroblasts after a 30 hr exposure to each of the indicated chemoprotective polyamines. […] In these experiments, the 23SK human skin cells were exposed for 30 hr to an “IC80” dose of each of the indicated chemoprotective polyamines and then lysed. Cell extracts were then prepared in order to measure p21 levels by western analysis (FIG. 3A).
FIG. 3 illustrates that chemoprotective polyamines are able to induce expression of the negative cell cycle regulatory protein, p21, after exposing the human skin cells to the polyamine molecules. […] In these experiments, the 23SK human skin cells were exposed for 30 hr to an “IC80” dose of each of the indicated chemoprotective polyamines and then lysed. Cell extracts were then prepared in order to measure p21 levels by western analysis (FIG. 3A). Although the ability of modified polyamines to induce p21 is known in the literature (Kramer, D. et al., Cancer Res. 59:1278-1286, 1999), it is a novel aspect of this invention that those chemoprotective polyamines with longer aliphatic “arms” were better able to induce expression of p21 as shown in FIG. 4.

[2] = tested on: Cytoxan-induced alopecia in rat pups; experiment: Cytoxan-induced alopecia in rat pups; assay type: in vivo
Protocol: Induction of alopecia by cytoxan (CTX). Lactating Sprague Dawley mother rats with rat pups were purchased from Harlan Sprague Dawley (Indianapolis, Ind.). The mother rats were given food and water ad libitum. The rats pups were tested in the model of chemotherapy-induced alopecia described by Hussein A. M. et al., Science: 249, 1564 (1990). Cytoxan (CTX), a chemotherapeutic widely used in the treatment of cancer, was used to induce alopecia in the rats. A common side effect of cytoxan treatment in patients is alopecia. Lyophilized vials of Cytoxan were obtained from Mead-Johnson. To produce CTX-induced alopecia, 11 day old rat pups, which are at the peak of coat growth, were injected i.p. with 30-35 μg of CTX/gm body weight. CTX was dissolved in water. By day 18 of life, the animals have shed virtually 100% of their coat leaving bare skin on their backs. Thus, topical application of protective drugs to the animal's back prior to the CTX insult provides a suitable test for prevention of chemotherapy-induced alopecia. A separate alopecia assay was also developed in which whole-body irradiation on day 11 of life was used as the insult. This assay is described in further detail in Example 12 which follows.
In the earliest studies with chemoprotective polyamines, the molecules were prepared in a topical delivery vehicle consisting of from 50-70% ethanol in water, depending on the solubility of the compound. The compounds in ethanol/water solution from 50-150 µl in volume were topically administered to the backs of the pups once per day before and after CTX challenge. Using a micropipette, the formulation was applied to an approximately 2 cm2 section of skin on the backs of the rat pups. Specifically, the pups were treated once daily for the 4-5 days before CTX challenge, once on the day of CTX challenge and once daily for 5 days afterwards. Control groups consisted of pups receiving only delivery vehicle. […]
In the earliest studies with chemoprotective polyamines, hair loss was evaluated using a modified alopecia-scoring index described by Chen G. et al., Int. […] In the later studies with aminothiols a simpler scoring scale was adopted in which coat density was scored on a 0-100 scale as “% of normal coat density.”
Method: To assess the ability of topical treatments to prevent Cytoxan-induced alopecia we used a published protocol (Hussein et al., Science. 249(4976):1564-6, 1990) in which 11 day old neonate rat pups (Sprague-Dawley) receive a total of 6 topical skin treatments of active agent(s) during the 5 hr before and 2 hr after a single ip dose of Cytoxan (32 ug/gm b.w.). […] The density of the rat coats in the topical treatment area was scored on day 18 of life for animals injected with Cytoxan.

23SK skin cells = experiment: Flow cytometry cell cycle distribution; assay type: cell-based, human; conditions: IC80 dose
Description: FIGS. 5A-5D are cell histograms showing the results from flow cytometry analysis of chemoprotective polyamine-treated 23SK skin cells.
In FIG. 5, cell histograms showing the results from flow cytometry analysis of chemoprotective polyamine-treated 23SK skin cells are shown. […] The transient nature of the cell cycle block induced by chemoprotective polyamines is believed to be an important aspect of their efficacy, i.e., their ability to block cell cycle progression in stem cells during the course of chemo- or radiotherapy, and the resumption of normal stem cell division after a given cancer therapy course has been completed.

[3] = tested on: primary, diploid fibroblasts isolated from human skin; experiment: Growth inhibition of primary diploid human skin fibroblasts; assay type: cell-based; conditions: 50% inhibition of human skin fibroblast growth
Protocol: The in vitro growth inhibitory effects of certain of the chemoprotective polyamines of the invention were measured using primary, diploid fibroblasts isolated from human skin.

DNA = DNA binding/precipitation from solution; conditions: Expt. 1; read-out: DNA Bind/ppt. IC50 (uM), Expt. 1
Description: The chemoprotective polyamines provided herein are also able to bind, denature and precipitate DNA from solution. As the skilled artisan will appreciate, as the concentration of polyamine is increased, there is a point where polyamine binding to helical B-DNA induces single-stranded ‘bubbles’ and conversion to other forms of DNA structure, such as Z-DNA (Feuerstein, B. et al., Nuc. Acids Res. 17:6883-6892, 1989; Basu, H. and Marton, L., Biochem. J. 244:243-246, 1987), as well as precipitating the DNA from solution.

[4] = tested on: radiation-induced dermatitis on backs of rats; experiment: Radiation-induced dermatitis in rat skin model; assay type: in vivo; conditions: 20 mM epinephrine; vehicle 0:95:5; cage 480; 8.7 Gy
Protocol: To determine efficacy of chemoprotective polyamines in preventing radiation-induced dermatitis, adult rats were topically treated with the compounds before and after radiation treatment. Rats were exposed to medically relevant levels of radiation that could induce clinical radiation dermatitis. Sprague Dawley rats (Harlan Spraque Dawley) at 4-6 weeks-old were anesthetized with sodium pentobarbital at 40 mg/kg body weight (Sigma, St. Louis, Mo.) prior to radiation exposure. A defined area (1.5×2 cm) on the backs of rats was irradiated using a Mark I, Model 30, Cs 137 irradiator (J. L. Sheppard & Associates). Before topical drug treatment or irradiation, the backs of the rats were clipped using an Oster clipper at the closest setting. The rest of the body was protected from radiation exposure using a lead shield (2.5 cm thick). A dose response study was initially performed to reproduce relevant dermatitis that matched the Grade (I-IV) scale used to score the severity of radiation-induced dermatitis in humans. The severity of the dermatitis was scored 12-13 days post-irradiation at the peak of the dermal inflammation. […] Radiation dermatitis of Grade II-III was considered most clinically relevant, so a radiation dose of 8.7 Gy was typically used in the rats. The clipped back region on the rats was treated topically with aminothiol in delivery vehicle four times in the two hours immediately preceding irradiation (at −2 hr, −1 hr, −30 min, and −10 min; irradiation was at 0 min
The polyamines or amino thiols were prepared in a delivery vehicle, consisting of ethanol:propylene glycol:water, ranging from 0:95:5 to 50:30:20 depending upon the solubility characteristics of the topical molecule, and the degree of dermal penetration desired. A vehicle composed of an emulsion formed by sonication of ‘nonionic liposomes’ and isopropyl myristate was also used (Jayaraman, S. et al., J. Pharm. Sci. 85:1082-1084, 1996). In a commonly used protocol, 220 μl of topical drug/vehicle was applied to an area ˜2 cm×3 cm on the back in the 2 hr just prior to irradiation. Rats treated with only the delivery vehicle served as controls. Twelve to thirteen days post-radiation, the rats were evaluated for dermatitis within the irradiated area. In early studies, a modified scoring scale described by Masuda K. et al., Int. J. Radiation Oncol. Biol. Phys: 12, 1645 (1986) was used, and in later studies, including those described here, a simplified scoring system was used in which the percentage of the irradiated, rectangular field covered with scrab material was estimated between 0 and 100% to provide scores on a scale between 0 and 100.
This example relates to the use of a rat skin model to evaluate the efficacy of two amino thiol compounds in preventing radiation-induced dermatitis. To test whether topically-applied aminothiols could prevent the radiodermatitis caused by external beam radiotherapy, the rodent model described in Example 3 was slightly modified. Briefly, the radiodermatitis model involved: • i) shaving the backs of 6-7 week old rats or mice; • ii) applying four topical doses of aminothiol in a delivery vehicle composed of ethanol:propylene glycol (PG):water in the 2 hr prior to irradiation; • iii) irradiating a small, 3 cm^2 (1.5×2 cm) area on the animal's back (through a window in a lead plate) with 8.7 Gy of γ radiation from a Cs^137 source; and • iv) scoring the severity of the dermatitis 12-13 days later, at the peak of the inflammatory skin reaction. Radiodermatitis severity was scored by estimating the percentage of the irradiated field that was covered by scrab material.
Methods: Treatments were applied as described in Example 6.

[5] = tested on: radiation-induced alopecia in 11 day old rat pups; conditions: vehicle 50:25:25
Protocol: In some cases, topical vasoconstrictors may be used to reduce the severity of cancer therapy side-effects. […] Because cysteamine might have been toxic if distributed systemically at high concentrations in animals, a vasoconstrictor, in this case epinephrine (epinephrine-HCl, Sigma Chemical, 20 mM in topical 0:95:5 vehicle; ethanol:PG:water) was topically co-applied with cysteamine in an effort to prevent any potential uptake of the small aminothiol by skin vasculature. […] These initial experiments were done using a rat model where whole-body radiation is used to induce alopecia. This protocol is a variation of the Cytoxan-induced alopecia protocol described in Example 2. Here, 11 day old rat pups receive four topical treatments to their backs in the two hour period (at −2 hr, −1 hr, −30 min, −10 min) just prior to receiving whole-body irradiation (3.65 min) in a Cs137 irradiator. […] The topical vehicle varies from 0:95:5 (ethanol:PG:water) to 50:30:20, depending upon the solubility and concentration of the particular aminothiol. […] Following irradiation, the animals are housed with lactating mothers for 9 days and protection from radiation-induced alopecia within the topically-treated area is scored on day 20 of life. Protection is scored as the percentage of coat density seen in unirradiated rats.
Here, epinephrine-HCl (FW:220) was dissolved in an ethanol:propylene glycol:water delivery vehicle and was applied four times in the two hours just prior to irradiating the 11 day old rat pups. The animals were then housed with lactating mothers until day 20 of life when the degree of protection conferred by the topical epinephrine was scored.

## CCNCCCCNCC=C(CNCC)CNCCCCNCC [PrC-110]
[1]
  p21 fold-induction at IC80 Dose: 2.91 fold
[2]; topical, alcohol:water vehicle, once per day five days before and five days after single systemic Cytoxan dose
  protection against Cytoxan-induced alopecia: excellent efficacy
23SK skin cells; G1
  Cell Cycle Distribution At IC80 Dose (%) G1: 60%
23SK skin cells; G2/M
  Cell Cycle Distribution At IC80 Dose (%) G2/M: 14%
23SK skin cells; S
  Cell Cycle Distribution At IC80 Dose (%) S: 26%
[3]; Expt. 1, read-out: IC50 (uM), Expt. 1
  IC50: 1680 µM
[3]; Expt. 2, read-out: IC50 (uM), Expt. 2
  IC50: 809 µM
DNA
  IC50: 270 µM

## Oc1ccc(/C=C/c2cc(O)cc(O)c2)cc1 [Resveratrol, trihydroxy-trans-stilbene, reference compound]
[2]; Resveratrol 5 umol/day alone, ip Cytoxan 32 ug/gm b.w., Experiment 564-567
  Alopecia Score (% Normal Coat Density in Topical Treatment Area): 5%

## CNC[C@H](O)c1ccc(O)c(O)c1 [epinephrine]
[4]
  Dermatitis Score (% of irradiated field free of scab material): 20 ± 8%
[5]; 20 mM epinephrine, 3.65 min γ irradiation (Cs137), Experiment 647-650
  Alopecia Score (% Normal Coat Density in Topical Treatment Area): 10%
[5]; 100 mM epinephrine, 3.65 min γ irradiation
  Alopecia Score (% Normal Coat Density in Topical Treatment Area): 35 ± 19%
[5]; 500 mM epinephrine, 3.65 min γ irradiation
  Alopecia Score (% Normal Coat Density in Topical Treatment Area): 43 ± 17%
[5]; 1000 mM epinephrine, 3.65 min γ irradiation
  Alopecia Score (% Normal Coat Density in Topical Treatment Area): 94 ± 6%
